Results from patent publication US9724312B2, “Agent for the prevention, improvement or treatment of retinal disease” (ROHTO PHARMACEUTICAL CO., LTD., priority 2012, dated 2017).

Legend:
PC12 = assay: Protective effect against ischemic cell death induced by hypoxia and low glucose (Cell Titer-Glo cell viability); format: cell-based, rat; conditions: 30 μM, 2 h pre-incubation, then low glucose/zero percent O2 8 h, FIG. 1, n=10, Tukey-Kramer
From the text: The progress of visual impairment in glaucoma is associated with retinal ganglion cell (RGC) death due to blood flow failure occurring near the optic nerve (Folia Pharmacol. Jpn. 128, 255-258 (2006)). With the use of PC12, which is a typical neural cell line established from rat adrenal […] pheochromocytoma and used also as a model cell for the functional evaluation of RGC (J Neurosci Res. 2000 May 15; 60(4): 495-503), the cytoprotective effect of GGA against ischemic cell death induced by hypoxia and low glucose was evaluated.
Test samples were prepared as follows. The test substances were four types of GGAs that contain the all-trans form and the 5Z-mono-cis form at a weight ratio of 10:0, 8:2, 6:4, and 0:10, respectively. […]
After 8 hours of incubation, 100 μL of an equivalent mixture of a cell viability detection reagent Cell Titer-Glo (Promega) and PBS was added to each well and the luminescence produced by the reaction with ATP in living cells was measured with a luminometer (GloMax; Promega). The cell viability was calculated from the measured luminescence by the following formula and the cytoprotective effect of GGA against oxidative stress by hydrogen peroxide was examined. Cell viability(%)=100×[(luminescence of base- or GGA-treated group)/(luminescence of non-treated group)]

[1] = tested on: IL-8 production by TNF-α in ARPE-19; assay: Inhibitory effect on IL-8 production by TNF-α from retinal pigment epithelial cells; format: cell-based, human; conditions: all-trans form content 50 μM, 16 h, then TNF-α 4 h, FIG. 5, n=3
From the text: Age-related macular degeneration is known to involve the accumulation of drusen under the retinal pigment epithelium. Drusen attract macrophages and macrophages secrete TNF-α. TNF-α acts on the retinal pigment epithelium and its peripheral tissue, and the cells subsequently produce a variety of cytokines and cause inflammation (Mol Vis. 2008 14: 2292-303). Atypical cytokine that is involved in neutrophil migration and spreads inflammation is interleukin-8 (IL-8). In this experiment, the inhibitory effect of GGA on IL-8 production by TNF-α was examined using a human-derived retinal pigment epithelial cell line, ARPE-19. […]
After 4 hours of incubation, 150 μL of the cell culture supernatant was collected and stored at −80° C. […] Then, 100 μL of an equivalent mixture of a cell viability detection reagent Cell Titer-Glo and PBS was added to each well and the luminescence produced by the reaction with ATP in living cells was measured with a luminometer. From the measured luminescence, the cell viability was calculated by the following formula. Cell viability(%)=100×[(luminescence of GGA-treated group)/(luminescence of base-treated group)]
The stored cell culture supernatant was allowed to warm to room temperature, and the IL-8 concentration was quantified with Human CXCL8/IL-8 Quantikine ELISA Kit (R&D Systems). […]

With `CC(=O)CC/C=C(\C)CC/C=C(\C)CC/C=C(\C)CCC=C(C)C` [all-trans form, (5E,9E,13E)-6,10,14,18-tetramethyl-5,9,13,17-nonadecatetrae n-2-one] the “cytoprotective effect compared with GGA 6:4” value (PC12) was “significantly higher cytoprotective effects” and the “inhibitory effect on IL-8 production compared with GGA 6:4” value [1] was “significant inhibitory effect on IL-8 production”.
